From article PMC6796659, “Topoisomerase IB poisons induce histone H2A phosphorylation as a response to DNA damage in Leishmania infantum” (International Journal for Parasitology: Drugs and Drug …, 2019) come the findings set out here.

SMILES strings stand for the structures.

In data set [1] the test system is Leishmania topoisomerase IB (LTopIB). Kind of data set: Relaxation of supercoiled pSK DNA by recombinant LTopIB. Type of data set: biochemical. The note with it: Table 1. How it is done: Expression and purification of LTopIB and hTopIB were carried out according to a previously standardized protocol ([Villa et al., 2003]). The effect of indenoisoquinolines (compounds 1 to 20) on recombinant LTopIB and hTopIB was determined by measuring the relaxation of negatively supercoiled pBluescript-SK DNA plasmid (pSK). Briefly, in a total volume of 20 μL, 100 U of recombinant TopIB were incubated with 0.5 μg of pSK DNA in 10 mM Tris-HCl buffer (pH 7.5), 5 mM MgCl2, 5 mM dithiothreitol (DTT), 0.1 mM EDTA, […] bovine serum albumin, and 150 mM KCl. Different concentrations of indenoisoquinolines were also added. Following a 4-min incubation period at 25 °C, reactions were stopped with 1% (w/v) SDS, and incubated for one extra hour at 37 °C in the presence of 1 mg/mL proteinase K. Subsequently, samples were extracted with 1 vol phenol-chloroform mixture and were loaded on a 1% agarose gel containing 0.1 μg/mL ethidium bromide. The gel was run for 16 h at 4 V/cm, and the images were acquired using a G-Box system (Syngene, United Kingdom).

The subject of data set [2] is histone H2A (Thr128) in L. infantum promastigotes. In words: Histone H2A phosphorylation (γH2A) by Western blot. Type of data set: cell-based, Leishmania infantum. The note with it: 10 μM, 0, 15, 60, 120 min. How it is done:
To detect H2A phosphorylation by L. infantum promastigotes, parasites in exponential growing phase (5–6 x 10^6 cells/mL) were incubated at 26 °C with CPT derivatives and indenoisoquinolines at a final concentration in the supplemented 199 standard medium of 10 μM. Control cells were treated with the drug vehicle DMSO using concentrations below 0.1%. After 0, 15, 60 and 120-min incubations, promastigotes were harvested by centrifugation, washed twice in PBS and the pellet resuspended in lysis buffer containing 50 mM Tris (pH:7), 50 mM NaCl, 20 mM NaF, 0.1% Tween 20 and 2x protease inhibitors (PIERCE™ protease inhibitor mini tablets). Twenty micrograms of the different extracts were loaded onto 15% SDS-PAGE gels, electrophoresed and transferred to PVDF membranes (Immobilon-FL, Millipore) using a mini trans-blot electrophoretic transfer cell (Bio-Rad). Polyclonal γH2A antisera were used at a 1:2000 dilution and secondary goat anti-rabbit IgG IRDye680 (Li-Cor Biosciences) was used at a 1:15000 dilution. The peptide competition assay was done incubating the polyclonal γH2A antisera with 50 ng/mL of the appropriate peptide (with and without phosphorylation at Thr residue) in blocking buffer for 1 h at room temperature before blotting. Loading control was performed using a monoclonal α tubulin mouse antibody at 2 μg/mL (final concentration) and a goat anti-mouse IgG IRDye 800 (Li-Cor Biosciences) as secondary antibody. Bands were visualized in an Odissey® (Li-Cor Biosciences) infrared detection facility. The quantification of γH2A signal was done with Bio-Rad Quantity One Analysis Software.
In general terms: Immunoblotting shows a protein as a band on a membrane.

The nature of data set [3]: Cytotoxicity on uninfected mouse splenocytes (Alamar Blue). Format: cell-based. The following applies: BALB/c, freshly isolated uninfected mouse splenocytes, non-infected mouse splenocytes, read-out: CC50 (μM) Murine Splenocytes. How it is done: Finally, the cytotoxicity of the compounds was assessed on freshly-isolated mouse splenocytes, which were obtained from uninfected BALB/c mice according to the protocol previously described. Viability of uninfected splenocytes was used to determine the cytotoxic concentration 50 (CC50) by means of the Alamar Blue staining method, according to manufacturer's recommendations (Invitrogen). Selectivity index (SI) for each compound was calculated as the ratio between the CC50 value obtained for splenic cells and the EC50 value for amastigotes.
In general terms: Resazurin is reduced to fluorescent resorufin, in cell work by metabolically active cells.

The subject of data set [4] is iRFP L. infantum amastigotes infecting mouse splenocytes. Kind of data set: Antileishmanial activity on iRFP L. infantum amastigotes in ex vivo murine splenic explants. Type of data set: cell-based, Leishmania infantum. On the procedure:
Five-week BALB/c female mice infected intraperitoneally with 1.5 × 10^9 metacyclic iRFP L. infantum promastigotes were sacrificed to eviscerate their spleens, which were processed to obtain a suspension of primary splenocytes. Briefly, freshly dissected spleens were washed with cold phosphate-buffered saline (PBS), cut in small pieces and incubated for 20 min with 5 mL of 2 mg/mL collagenase D (Sigma) prepared in buffer (10 mM HEPES, pH 7.4, 150 mM NaCl, 5 mM KCl, 1 mM MgCl2 and 1.8 mM CaCl2). Then, the cell suspension was passed through a 100 μm cell strainer, harvested by centrifugation (500×g for 7 min at 4 °C), washed twice with PBS, and resuspended in RPMI medium (Gibco) supplemented with 10 mM HEPES, 1 mM sodium pyruvate, 1xRPMI 1640 vitamin mix, 10% (v/v) FBS, 50 U/mL penicillin and 50 μg/mL streptomycin. The cell suspension was cultured in 384-well optical bottom black plates (Thermo Scientific) at 37 °C under 5% CO2 atmosphere.
The antileishmanial activity of the compounds was tested both in promastigotes and in amastigotes infecting mouse splenocytes. For this purpose, 384-well optical bottom black plates (Thermo Scientific) were seeded either with free-living iRFP L. infantum promastigotes or with splenic explants infected with iRFP L. infantum amastigotes, which were incubated at 26 °C or 37 °C, respectively. The viability of both iRFP L. infantum stages was measured by recording the fluorescence emitted by viable cells at 708 nm in an Odyssey (Li-Cor) infrared imaging system after a 72-h period of incubation with different concentrations of the compounds. Dose-response curves were obtained by plotting the infrared fluorescence emission of viable parasites vs. different concentrations of testing compounds and were fitted by nonlinear analysis using the Sigma-Plot 10.0 statistical package. The reduction of infrared emission with respect to the negative control was used to determine the 50% effective concentration to kill the parasites (EC50). Both controls and treated groups were tested with DMSO (drug vehicle) concentrations below 0.1%. All compounds and controls were assayed in triplicate.

Broadly, the CC50 is the concentration at which the toxic effect on the cells reaches its halfway point. A word on the EC50: it is the concentration that produces a half-maximal response. Turning to `NCCCn1c2c(c3ccccc3c1=O)C(=O)c1ccccc1-2` [Compound 2], the LTopIB inhibition entry in data set [1] is on record as “+++ (inhibition at 1 μM)”. The “γH2A signal (H2A phosphorylation), Western blot” value in data set [2] was “strong γH2A signaling”. Besides, the 50% cytotoxic concentration (CC50) in data set [3] turned out to be 0.59 ± 0.28 µM. The “SI (Selectivity Index)” value in data set [4] (CC50 (splenocytes)/EC50 (amastigotes)) came out at 4.9. Also, the EC50 in data set [4] (Leishmania infantum, Splenocyte, splenic-infecting iRFP L. infantum amastigotes, 72 h, 37 °C, read-out: EC50 (μM) L. infantum amastigotes) worked out at 0.12 ± 0.05 µM.
